Assay results published in US8426345B2, “Method of drug design” (Alchemia Limited, priority 2005, dated 2013).

Target: T1, Human SST5 somatostatin receptor (Homo sapiens, UniProt P35346)
T1 construct: expressed in transfected cells; host or cells: HEK-293 EBNA cells (membranes)
Experiment: Filter plate radio-ligand binding assay for SST5 receptor ([125I]SST-14 displacement)
Conditions: 3P library; for % SST5 radio-ligand binding displaced at conc 0.001: conc 0.001 μM; for % SST5 radio-ligand binding displaced at conc 0.10: conc 0.10 μM; for % SST5 radio-ligand binding displaced at conc 0.5: conc 0.5 μM; for % SST5 radio-ligand binding displaced at conc 1.0: conc 1.0 μM; for % SST5 radio-ligand binding displaced at conc 10: conc 10 μM; for % SST5 radio-ligand binding displaced at conc 0.25: conc 0.25 μM

T1 sequence (P35346 whole entry): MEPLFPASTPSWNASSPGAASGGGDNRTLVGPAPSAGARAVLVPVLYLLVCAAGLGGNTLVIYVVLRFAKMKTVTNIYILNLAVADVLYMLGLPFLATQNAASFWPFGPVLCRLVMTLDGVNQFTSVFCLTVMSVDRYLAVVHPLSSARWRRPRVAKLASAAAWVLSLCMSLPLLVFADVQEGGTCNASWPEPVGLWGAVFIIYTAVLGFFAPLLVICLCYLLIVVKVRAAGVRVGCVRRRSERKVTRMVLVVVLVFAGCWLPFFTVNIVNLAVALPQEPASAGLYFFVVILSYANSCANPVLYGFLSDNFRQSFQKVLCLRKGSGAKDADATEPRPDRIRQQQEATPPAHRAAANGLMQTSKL

Structure (SMILES) | % SST5 radio-ligand binding displaced at conc 0.001 | % SST5 radio-ligand binding displaced at conc 0.10 | % SST5 radio-ligand binding displaced at conc 0.5 | % SST5 radio-ligand binding displaced at conc 1.0 | % SST5 radio-ligand binding displaced at conc 10 | % SST5 radio-ligand binding displaced at conc 0.25
COCC1OC(OCc2ccc3ccccc3c2)C(NC(=O)CCN)C(OCc2ccccc2)C1O (mixture of isomers) [Compound 64] | − (% SST5 radio-ligand binding displaced at cone (μM) −<40%) | + (% SST5 radio-ligand binding displaced at cone (μM) 60>+>40%) | ++ (% SST5 radio-ligand binding displaced at conc (μM) >60%) | ++ (% SST5 radio-ligand binding displaced at conc (μM) >60%) | ++ (% SST5 radio-ligand binding displaced at conc (μM) >60%) | –
COCC1OC(OCc2ccc3ccccc3c2)C(NC(=O)CCN)C(OCc2ccccc2)C1O (mixture of isomers) [Compound 65] | – | – | – | – | ++ (% SST5 radio-ligand binding displaced at conc (μM) >60%) | –
COCC1OC(OCc2ccc3ccccc3c2)C(NC(=O)CCN)C(OCc2ccc(Cl)cc2)C1O (mixture of isomers) [Compound 66] | − (% SST5 radio-ligand binding displaced at cone (μM) −<40%) | − (% SST5 radio-ligand binding displaced at cone (μM) −<40%) | ++ (% SST5 radio-ligand binding displaced at conc (μM) >60%) | ++ (% SST5 radio-ligand binding displaced at conc (μM) >60%) | ++ (% SST5 radio-ligand binding displaced at conc (μM) >60%) | –
COCC1OC(OCc2ccc3ccccc3c2)C(NC(=O)CCN)C(OCc2ccc(Cl)cc2)C1O (mixture of isomers) [Compound 67] | – | – | – | – | ++ (% SST5 radio-ligand binding displaced at conc (μM) >60%) | –
COCC1OC(OCc2ccc3ccccc3c2)C(NC(=O)CCN)C(OCc2ccc(-c3ccccc3)cc2)C1O (mixture of isomers) [Compound 68] | − (% SST5 radio-ligand binding displaced at cone (μM) −<40%) | − (% SST5 radio-ligand binding displaced at cone (μM) −<40%) | ++ (% SST5 radio-ligand binding displaced at conc (μM) >60%) | ++ (% SST5 radio-ligand binding displaced at conc (μM) >60%) | ++ (% SST5 radio-ligand binding displaced at conc (μM) >60%) | − (% SST5 radio-ligand binding displaced at cone (μM) −<40%)
COCC1OC(OCc2ccc3ccccc3c2)C(NC(=O)CCN)C(OCc2ccc3ccccc3c2)C1O (mixture of isomers) [Compound 69] | + (% SST5 radio-ligand binding displaced at cone (μM) 60>+>40%) | ++ (% SST5 radio-ligand binding displaced at conc (μM) >60%) | ++ (% SST5 radio-ligand binding displaced at conc (μM) >60%) | ++ (% SST5 radio-ligand binding displaced at conc (μM) >60%) | ++ (% SST5 radio-ligand binding displaced at conc (μM) >60%) | –
NCCC(=O)NC1C(OCc2ccc3ccccc3c2)OC(COCc2ccc3ccccc3c2)C(O)C1OCc1ccc(Cl)cc1 (mixture of isomers) [Compound 70] | – | – | – | + (% SST5 radio-ligand binding displaced at cone (μM) 60>+>40%) | – | − (% SST5 radio-ligand binding displaced at cone (μM) −<40%)
NCCC(=O)NC1C(OCc2ccc3ccccc3c2)OC(COCc2ccccc2)C(O)C1OCc1ccc(Cl)cc1 (mixture of isomers) [Compound 71] | – | – | – | ++ (% SST5 radio-ligand binding displaced at conc (μM) >60%) | – | − (% SST5 radio-ligand binding displaced at cone (μM) −<40%)
NCCC(=O)NC1C(OCc2ccc3ccccc3c2)OC(COCc2ccc(Cl)cc2)C(O)C1OCc1ccc(Cl)cc1 (mixture of isomers) [Compound 72] | – | – | – | ++ (% SST5 radio-ligand binding displaced at conc (μM) >60%) | – | − (% SST5 radio-ligand binding displaced at cone (μM) −<40%)
NCCC(=O)NC1C(OCc2ccc3ccccc3c2)OC(COCc2ccc3ccccc3c2)C(O)C1OCc1ccc2ccccc2c1 (mixture of isomers) [Compound 73] | – | – | – | + (% SST5 radio-ligand binding displaced at cone (μM) 60>+>40%) | – | − (% SST5 radio-ligand binding displaced at cone (μM) −<40%)
NCCC(=O)NC1C(OCc2ccc3ccccc3c2)OC(COCc2ccccc2)C(O)C1OCc1ccc2ccccc2c1 (mixture of isomers) [Compound 74] | – | – | – | ++ (% SST5 radio-ligand binding displaced at conc (μM) >60%) | – | − (% SST5 radio-ligand binding displaced at cone (μM) −<40%)
NCCC(=O)NC1C(OCc2ccc3ccccc3c2)OC(COCc2ccc(Cl)cc2)C(O)C1OCc1ccc2ccccc2c1 (mixture of isomers) [Compound 75] | – | – | – | ++ (% SST5 radio-ligand binding displaced at conc (μM) >60%) | – | − (% SST5 radio-ligand binding displaced at cone (μM) −<40%)
NCCC(=O)NC1C(OCc2ccc3ccccc3c2)OC(COCc2ccc3ccccc3c2)C(O)C1OCc1ccccc1 (mixture of isomers) [Compound 76] | – | – | – | ++ (% SST5 radio-ligand binding displaced at conc (μM) >60%) | – | − (% SST5 radio-ligand binding displaced at cone (μM) −<40%)
NCCC(=O)NC1C(OCc2ccc3ccccc3c2)OC(COCc2ccccc2)C(O)C1OCc1ccccc1 (mixture of isomers) [Compound 77] | – | – | – | ++ (% SST5 radio-ligand binding displaced at conc (μM) >60%) | – | − (% SST5 radio-ligand binding displaced at cone (μM) −<40%)
NCCC(=O)NC1C(OCc2ccc3ccccc3c2)OC(COCc2ccc(Cl)cc2)C(O)C1OCc1ccccc1 (mixture of isomers) [Compound 78] | – | – | – | ++ (% SST5 radio-ligand binding displaced at conc (μM) >60%) | – | + (% SST5 radio-ligand binding displaced at cone (μM) 60>+>40%)
COC1C(O)C(COCc2ccccc2)OC(OCc2ccc3ccccc3c2)C1NC(=O)CCN (mixture of isomers) [Compound 93] | – | – | – | + (% SST5 radio-ligand binding displaced at cone (μM) 60>+>40%) | – | − (% SST5 radio-ligand binding displaced at cone (μM) −<40%)
COC1C(O)C(COCc2ccc3ccccc3c2)OC(OCc2ccc3ccccc3c2)C1NC(=O)CCN (mixture of isomers) [Compound 97] | – | – | – | + (% SST5 radio-ligand binding displaced at cone (μM) 60>+>40%) | – | − (% SST5 radio-ligand binding displaced at cone (μM) −<40%)
COCC1OC(OCc2ccc3ccccc3c2)C(NC(=O)CCCN)C(OCc2ccccc2)C1O (mixture of isomers) [Compound 120] | – | – | + (% SST5 radio-ligand binding displaced at cone (μM) 60>+>40%) | – | ++ (% SST5 radio-ligand binding displaced at conc (μM) >60%) | –
COC1C(O)C(COCc2ccc(-c3ccccc3)cc2)OC(OCc2ccc3ccccc3c2)C1NC(=O)CCCN (mixture of isomers) [Compound 121] | – | – | + (% SST5 radio-ligand binding displaced at cone (μM) 60>+>40%) | – | + (% SST5 radio-ligand binding displaced at cone (μM) 60>+>40%) | –
